According to ChEMBL document CHEMBL1671673, “In vitro activity of colistin (polymyxin E) against 3,480 isolates of gram-negative bacilli obtained from patients in Canadian hospitals in the CANWARD study, 2007-2008” (Antimicrob Agents Chemother, 2009):

Columns and labels:
Assay type in all cases: functional, organism-based
Pseudomonas aeruginosa [1] = experiment: Antibacterial activity against Levofloxacin-resistant Pseudomonas aeruginosa assessed as susceptible isolates at minimum inhibitory concentration of 2 ug/ml by CLSI broth microdilution method; parameters: scale not given: the % may be the effect or the level left
Pseudomonas aeruginosa [2] = experiment: Antibacterial activity against Levofloxacin-resistant Pseudomonas aeruginosa assessed as susceptible isolates at minimum inhibitory concentration of 4 ug/ml by CLSI broth microdilution method; parameters: scale not given: the % may be the effect or the level left
Pseudomonas aeruginosa [3] = experiment: Antibacterial activity against Levofloxacin-resistant Pseudomonas aeruginosa assessed as susceptible isolates at minimum inhibitory concentration of 8 ug/ml by CLSI broth microdilution method; parameters: scale not given: the % may be the effect or the level left
Pseudomonas aeruginosa [4] = experiment: Antibacterial activity against Meropenem-resistant Pseudomonas aeruginosa assessed as susceptible isolates at minimum inhibitory concentration of 2 ug/ml by CLSI broth microdilution method; parameters: scale not given: the % may be the effect or the level left
Pseudomonas aeruginosa [5] = experiment: Antibacterial activity against Piperacillin-resistant Pseudomonas aeruginosa assessed as susceptible isolates at minimum inhibitory concentration of 1 ug/ml by CLSI broth microdilution method; parameters: scale not given: the % may be the effect or the level left
Pseudomonas aeruginosa [6] = experiment: Antibacterial activity against Piperacillin-resistant Pseudomonas aeruginosa assessed as susceptible isolates at minimum inhibitory concentration of 4 ug/ml by CLSI broth microdilution method; parameters: scale not given: the % may be the effect or the level left
Pseudomonas aeruginosa [7] = experiment: Antibacterial activity against MDR Pseudomonas aeruginosa assessed as susceptible isolates at minimum inhibitory concentration of 0.5 ug/ml by CLSI broth microdilution method; parameters: scale not given: the % may be the effect or the level left
Pseudomonas aeruginosa [8] = experiment: Antibacterial activity against Pseudomonas aeruginosa assessed as susceptible isolates at minimum inhibitory concentration of <=2 ug/ml by CLSI broth microdilution method; parameters: scale not given: the % may be the effect or the level left
Pseudomonas aeruginosa [9] = experiment: Antibacterial activity against Pseudomonas aeruginosa assessed as intermediate isolates at 4 ug/ml by CLSI broth microdilution method
Pseudomonas aeruginosa [10] = experiment: Antibacterial activity against tazobactam-resistant Pseudomonas aeruginosa assessed as susceptible isolates at minimum inhibitory concentration of 0.5 ug/ml by CLSI broth microdilution method; parameters: scale not given: the % may be the effect or the level left
Pseudomonas aeruginosa [11] = experiment: Antibacterial activity against tazobactam-resistant Pseudomonas aeruginosa assessed as susceptible isolates at minimum inhibitory concentration of 1 ug/ml by CLSI broth microdilution method; parameters: scale not given: the % may be the effect or the level left
Pseudomonas aeruginosa [12] = experiment: Antibacterial activity against tazobactam-resistant Pseudomonas aeruginosa assessed as susceptible isolates at minimum inhibitory concentration of 2 ug/ml by CLSI broth microdilution method; parameters: scale not given: the % may be the effect or the level left
Pseudomonas aeruginosa [13] = experiment: Antibacterial activity against tazobactam-resistant Pseudomonas aeruginosa assessed as susceptible isolates at minimum inhibitory concentration of 4 ug/ml by CLSI broth microdilution method; parameters: scale not given: the % may be the effect or the level left
Serratia marcescens [14] = experiment: Antibacterial activity against Serratia marcescens assessed as susceptible isolates at minimum inhibitory concentration of 4 ug/ml by CLSI broth microdilution method; parameters: scale not given: the % may be the effect or the level left
Serratia marcescens [15] = experiment: Antibacterial activity against Serratia marcescens assessed as susceptible isolates at minimum inhibitory concentration of 1 ug/ml by CLSI broth microdilution method; parameters: scale not given: the % may be the effect or the level left
Serratia marcescens [16] = experiment: Antibacterial activity against Serratia marcescens assessed as susceptible isolates at minimum inhibitory concentration of 0.25 ug/ml by CLSI broth microdilution method; parameters: scale not given: the % may be the effect or the level left
Proteus mirabilis [17] = experiment: Antibacterial activity against Proteus mirabilis assessed as susceptible isolates at minimum inhibitory concentration of >16 ug/ml by CLSI broth microdilution method; parameters: scale not given: the % may be the effect or the level left
Proteus mirabilis [18] = experiment: Antibacterial activity against Proteus mirabilis assessed as susceptible isolates at minimum inhibitory concentration of 8 ug/ml by CLSI broth microdilution method; parameters: scale not given: the % may be the effect or the level left
Proteus mirabilis [19] = experiment: Antibacterial activity against Proteus mirabilis assessed as susceptible isolates at minimum inhibitory concentration of 2 ug/ml by CLSI broth microdilution method; parameters: scale not given: the % may be the effect or the level left
Klebsiella pneumoniae [20] = experiment: Antibacterial activity against ESBL-producing Klebsiella pneumoniae assessed as susceptible isolates at minimum inhibitory concentration of >16 ug/ml by CLSI broth microdilution method; parameters: scale not given: the % may be the effect or the level left
Klebsiella pneumoniae [21] = experiment: Antibacterial activity against ESBL-producing Klebsiella pneumoniae assessed as susceptible isolates at minimum inhibitory concentration of 4 ug/ml by CLSI broth microdilution method; parameters: scale not given: the % may be the effect or the level left
Klebsiella pneumoniae [22] = experiment: Antibacterial activity against ESBL-producing Klebsiella pneumoniae assessed as susceptible isolates at minimum inhibitory concentration of 0.5 ug/ml by CLSI broth microdilution method; parameters: scale not given: the % may be the effect or the level left
Pseudomonas aeruginosa [23] = experiment: Antibacterial activity against Pseudomonas aeruginosa assessed as susceptible isolates at minimum inhibitory concentration of 4 ug/ml by CLSI broth microdilution method; parameters: scale not given: the % may be the effect or the level left
Pseudomonas aeruginosa [24] = experiment: Antibacterial activity against Pseudomonas aeruginosa assessed as susceptible isolates at minimum inhibitory concentration of 2 ug/ml by CLSI broth microdilution method; parameters: scale not given: the % may be the effect or the level left
Pseudomonas aeruginosa [25] = experiment: Antibacterial activity against Pseudomonas aeruginosa assessed as susceptible isolates at minimum inhibitory concentration of 0.5 ug/ml by CLSI broth microdilution method; parameters: scale not given: the % may be the effect or the level left
Escherichia coli [26] = experiment: Antibacterial activity against ESBL-producing Escherichia coli assessed as susceptible isolates at minimum inhibitory concentration of 0.5 ug/ml by CLSI broth microdilution method; parameters: scale not given: the % may be the effect or the level left
Escherichia coli [27] = experiment: Antibacterial activity against ESBL-producing Escherichia coli assessed as susceptible isolates at minimum inhibitory concentration of 0.12 ug/ml by CLSI broth microdilution method; parameters: scale not given: the % may be the effect or the level left
Escherichia coli [28] = experiment: Antibacterial activity against ESBL-producing Escherichia coli assessed as susceptible isolates at minimum inhibitory concentration of <=0.06 ug/ml by CLSI broth microdilution method; parameters: scale not given: the % may be the effect or the level left
[29] = test system: Stenotrophomonas maltophilia; experiment: Antibacterial activity against Stenotrophomonas maltophilia assessed as susceptible isolates at minimum inhibitory concentration of 0.12 ug/ml by CLSI broth microdilution method; parameters: scale not given: the % may be the effect or the level left
[30] = test system: Stenotrophomonas maltophilia; experiment: Antibacterial activity against Stenotrophomonas maltophilia assessed as susceptible isolates at minimum inhibitory concentration of 16 ug/ml by CLSI broth microdilution method; parameters: scale not given: the % may be the effect or the level left
Klebsiella aerogenes = experiment: Antibacterial activity against Enterobacter aerogenes assessed as susceptible isolates at minimum inhibitory concentration of 2 ug/ml by CLSI broth microdilution method; parameters: scale not given: the % may be the effect or the level left
Acinetobacter baumannii [31] = experiment: Antibacterial activity against Acinetobacter baumannii assessed as susceptible isolates at minimum inhibitory concentration of <=0.06 ug/ml by CLSI broth microdilution method; parameters: scale not given: the % may be the effect or the level left
Acinetobacter baumannii [32] = experiment: Antibacterial activity against Acinetobacter baumannii assessed as susceptible isolates at minimum inhibitory concentration of 1 ug/ml by CLSI broth microdilution method; parameters: scale not given: the % may be the effect or the level left
Acinetobacter baumannii [33] = experiment: Antibacterial activity against Acinetobacter baumannii assessed as susceptible isolates at minimum inhibitory concentration of 16 ug/ml by CLSI broth microdilution method; parameters: scale not given: the % may be the effect or the level left
Pseudomonas aeruginosa [34] = experiment: Antibacterial activity against Amikacin-resistant Pseudomonas aeruginosa assessed as susceptible isolates at minimum inhibitory concentration of 0.5 ug/ml by CLSI broth microdilution method; parameters: scale not given: the % may be the effect or the level left
Pseudomonas aeruginosa [35] = experiment: Antibacterial activity against Amikacin-resistant Pseudomonas aeruginosa assessed as susceptible isolates at minimum inhibitory concentration of 8 ug/ml by CLSI broth microdilution method; parameters: scale not given: the % may be the effect or the level left
Pseudomonas aeruginosa [36] = experiment: Antibacterial activity against Cefepime-resistant Pseudomonas aeruginosa assessed as susceptible isolates at minimum inhibitory concentration of 0.5 ug/ml by CLSI broth microdilution method; parameters: scale not given: the % may be the effect or the level left
Pseudomonas aeruginosa [37] = experiment: Antibacterial activity against Cefepime-resistant Pseudomonas aeruginosa assessed as susceptible isolates at minimum inhibitory concentration of 1 ug/ml by CLSI broth microdilution method; parameters: scale not given: the % may be the effect or the level left
Klebsiella oxytoca [38] = experiment: Antibacterial activity against Klebsiella oxytoca assessed as susceptible isolates at minimum inhibitory concentration of 8 ug/ml by CLSI broth microdilution method; parameters: scale not given: the % may be the effect or the level left
Klebsiella oxytoca [39] = experiment: Antibacterial activity against Klebsiella oxytoca assessed as susceptible isolates at minimum inhibitory concentration of 1 ug/ml by CLSI broth microdilution method; parameters: scale not given: the % may be the effect or the level left

Sequence: COLISTIN
- Activity (Pseudomonas aeruginosa [1]): 92.2%
- Activity (Pseudomonas aeruginosa [2]): 98.2%
- Activity (Pseudomonas aeruginosa [3]): 98.2%
- Activity (Pseudomonas aeruginosa [4]): 98.2%
- Activity (Pseudomonas aeruginosa [5]): 37.5%
- Activity (Pseudomonas aeruginosa [6]): 100%
- Activity (Pseudomonas aeruginosa [7]): 5.3%
- Activity (Pseudomonas aeruginosa [8]): 91.6%
- Activity (Pseudomonas aeruginosa [9]): 7.3%
- Activity (Pseudomonas aeruginosa [10]): 1.8%
- Activity (Pseudomonas aeruginosa [11]): 37.5%
- Activity (Pseudomonas aeruginosa [12]): 92.9%
- Activity (Pseudomonas aeruginosa [13]): 100%
- Activity (Serratia marcescens [14]): 1.9%
- Activity (Serratia marcescens [15]): 1.9%
- Activity (Serratia marcescens [16]): 0%
- Activity (Proteus mirabilis [17]): 100%
- Activity (Proteus mirabilis [18]): 0%
- Activity (Proteus mirabilis [19]): 0%
- Activity (Klebsiella pneumoniae [20]): 100%
- Activity (Klebsiella pneumoniae [21]): 97.7%
- Activity (Klebsiella pneumoniae [22]): 77.9%
- Activity (Pseudomonas aeruginosa [23]): 98.9%
- Activity (Pseudomonas aeruginosa [24]): 91.6%
- Activity (Pseudomonas aeruginosa [25]): 2.5%
- Activity (Escherichia coli [26]): 82.4%
- Activity (Escherichia coli [27]): 1.2%
- Activity (Escherichia coli [28]): 0.1%
- Activity [29]: 0%
- Activity [30]: 56.6%
- Activity (Klebsiella aerogenes): 97.3%
- Activity (Acinetobacter baumannii [31]): 0%
- Activity (Acinetobacter baumannii [32]): 74.2%
- Activity (Acinetobacter baumannii [33]): 96.8%
- Activity (Pseudomonas aeruginosa [34]): 5.3%
- Activity (Pseudomonas aeruginosa [35]): 97.4%
- Activity (Pseudomonas aeruginosa [36]): 6.8%
- Activity (Pseudomonas aeruginosa [37]): 39.7%
- Activity (Klebsiella oxytoca [38]): 98.1%
- Activity (Klebsiella oxytoca [39]): 91.7%
